Data: ChEMBL document CHEMBL6127029, “Glutathione-dependent degradation of SMARCA2/4 for targeted lung cancer therapy with improved selectivity” (Eur J Med Chem, 2024)
Calls of active or inactive are those of the source. No cut-off for these calls is given here.

Key:
[1] = Toxicity in BALB/c mouse xenografted with human A549 cells assessed as morphological change in heart at 80 mg/kg,IT(Intratumoral) administrated every four days for 16 days by hematoxylin and eosin staining based microscopic analysis; format: organism-based; details: in vivo, other, 384 h, time 16 day
[2] = target: T1, von Hippel-Lindau disease tumor suppressor/SWI/SNF-related matrix-associated actin-dependent regulator of chromatin subfamily A member 2 (Homo sapiens) (UniProt P51531+P40337); assay: PROTAC activity at VHL/SMARCA2 in human HEK-293T cells assessed as induction of SMARCA2 degradation at 1 uM incubated for 24 hrs by Western blotting analysis relative to control; format: cell-based
T1 sequence (P40337 whole entry, looked up): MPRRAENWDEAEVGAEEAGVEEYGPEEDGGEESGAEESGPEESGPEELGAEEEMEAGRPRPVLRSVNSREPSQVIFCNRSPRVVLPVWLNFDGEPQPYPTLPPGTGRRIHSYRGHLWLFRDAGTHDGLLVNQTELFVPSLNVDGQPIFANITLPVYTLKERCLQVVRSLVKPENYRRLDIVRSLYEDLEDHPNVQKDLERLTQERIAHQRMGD
T1 sequence (P51531 whole entry, looked up): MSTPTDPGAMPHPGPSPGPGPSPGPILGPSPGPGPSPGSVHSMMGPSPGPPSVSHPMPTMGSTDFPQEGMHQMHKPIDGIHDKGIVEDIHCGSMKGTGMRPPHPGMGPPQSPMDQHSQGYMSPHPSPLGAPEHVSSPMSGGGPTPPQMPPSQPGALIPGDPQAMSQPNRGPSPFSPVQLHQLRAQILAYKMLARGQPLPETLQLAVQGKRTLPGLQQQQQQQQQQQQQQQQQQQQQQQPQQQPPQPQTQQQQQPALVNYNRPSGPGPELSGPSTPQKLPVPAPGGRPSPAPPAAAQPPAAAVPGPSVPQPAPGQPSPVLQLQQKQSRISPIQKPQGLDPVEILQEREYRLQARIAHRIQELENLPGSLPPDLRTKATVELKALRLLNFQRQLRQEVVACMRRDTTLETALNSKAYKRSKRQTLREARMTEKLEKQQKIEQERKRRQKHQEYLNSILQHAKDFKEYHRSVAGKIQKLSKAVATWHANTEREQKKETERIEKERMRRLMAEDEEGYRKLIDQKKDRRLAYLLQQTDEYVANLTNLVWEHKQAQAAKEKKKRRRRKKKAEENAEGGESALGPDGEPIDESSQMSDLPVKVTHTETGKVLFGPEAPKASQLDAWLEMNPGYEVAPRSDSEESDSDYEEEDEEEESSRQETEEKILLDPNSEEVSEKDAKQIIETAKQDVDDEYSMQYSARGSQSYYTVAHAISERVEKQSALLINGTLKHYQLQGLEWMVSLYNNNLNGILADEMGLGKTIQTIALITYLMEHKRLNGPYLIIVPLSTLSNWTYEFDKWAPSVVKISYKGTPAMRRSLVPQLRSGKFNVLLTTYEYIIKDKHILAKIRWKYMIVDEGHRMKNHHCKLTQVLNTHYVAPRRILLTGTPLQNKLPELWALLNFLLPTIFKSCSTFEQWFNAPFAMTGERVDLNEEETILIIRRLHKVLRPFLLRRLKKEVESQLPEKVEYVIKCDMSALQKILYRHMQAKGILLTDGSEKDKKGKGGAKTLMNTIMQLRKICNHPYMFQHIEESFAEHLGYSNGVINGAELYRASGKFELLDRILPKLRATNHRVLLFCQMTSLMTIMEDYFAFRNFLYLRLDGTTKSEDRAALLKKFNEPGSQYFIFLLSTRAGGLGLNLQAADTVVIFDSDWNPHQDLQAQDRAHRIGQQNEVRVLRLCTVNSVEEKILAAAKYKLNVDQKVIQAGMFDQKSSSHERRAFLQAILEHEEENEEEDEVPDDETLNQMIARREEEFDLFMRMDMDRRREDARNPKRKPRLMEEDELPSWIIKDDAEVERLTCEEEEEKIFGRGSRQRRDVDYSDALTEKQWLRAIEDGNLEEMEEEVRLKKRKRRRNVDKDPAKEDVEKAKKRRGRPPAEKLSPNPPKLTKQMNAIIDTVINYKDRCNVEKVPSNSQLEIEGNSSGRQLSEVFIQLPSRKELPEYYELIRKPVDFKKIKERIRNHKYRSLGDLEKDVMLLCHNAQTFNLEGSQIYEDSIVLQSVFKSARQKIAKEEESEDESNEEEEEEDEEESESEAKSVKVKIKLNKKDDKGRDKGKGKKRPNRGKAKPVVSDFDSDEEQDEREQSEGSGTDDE

A549 [3] = assay: Inhibition of colony formation in human A549 cells assessed as reduction in colony size at 0.8 to 20 uM incubated for 13 days by crystal violet staining based analysis; format: functional, cell-based; details: dose 0.8-20 µM, time 13.0 day
[4] = target: T1, von Hippel-Lindau disease tumor suppressor/SWI/SNF-related matrix-associated actin-dependent regulator of chromatin subfamily A member 2 (Homo sapiens); assay: PROTAC activity at VHL/SMARCA2 in human 786-0 cells harboring mutated VHL assessed as induction of SMARCA2 degradation at 0.1 to 5 uM incubated for 8 hrs by Western blotting analysis; format: cell-based; details: dose 0.1-5 µM
[5] = target: T2, von Hippel-Lindau disease tumor suppressor/SWI/SNF-related matrix-associated actin-dependent regulator of chromatin subfamily A member 4 (Homo sapiens) (UniProt P51532+P40337); assay: PROTAC activity at VHL/SMARCA4 in human 786-0 cells harboring mutated VHL assessed as induction of SMARCA4 degradation at 0.1 to 5 uM incubated for 8 hrs by Western blotting analysis; format: cell-based; details: dose 0.1-5 µM
T2 sequence (P40337 whole entry, looked up): as the sequence (P40337 whole entry, looked up) above
T2 sequence (P51532 whole entry, looked up): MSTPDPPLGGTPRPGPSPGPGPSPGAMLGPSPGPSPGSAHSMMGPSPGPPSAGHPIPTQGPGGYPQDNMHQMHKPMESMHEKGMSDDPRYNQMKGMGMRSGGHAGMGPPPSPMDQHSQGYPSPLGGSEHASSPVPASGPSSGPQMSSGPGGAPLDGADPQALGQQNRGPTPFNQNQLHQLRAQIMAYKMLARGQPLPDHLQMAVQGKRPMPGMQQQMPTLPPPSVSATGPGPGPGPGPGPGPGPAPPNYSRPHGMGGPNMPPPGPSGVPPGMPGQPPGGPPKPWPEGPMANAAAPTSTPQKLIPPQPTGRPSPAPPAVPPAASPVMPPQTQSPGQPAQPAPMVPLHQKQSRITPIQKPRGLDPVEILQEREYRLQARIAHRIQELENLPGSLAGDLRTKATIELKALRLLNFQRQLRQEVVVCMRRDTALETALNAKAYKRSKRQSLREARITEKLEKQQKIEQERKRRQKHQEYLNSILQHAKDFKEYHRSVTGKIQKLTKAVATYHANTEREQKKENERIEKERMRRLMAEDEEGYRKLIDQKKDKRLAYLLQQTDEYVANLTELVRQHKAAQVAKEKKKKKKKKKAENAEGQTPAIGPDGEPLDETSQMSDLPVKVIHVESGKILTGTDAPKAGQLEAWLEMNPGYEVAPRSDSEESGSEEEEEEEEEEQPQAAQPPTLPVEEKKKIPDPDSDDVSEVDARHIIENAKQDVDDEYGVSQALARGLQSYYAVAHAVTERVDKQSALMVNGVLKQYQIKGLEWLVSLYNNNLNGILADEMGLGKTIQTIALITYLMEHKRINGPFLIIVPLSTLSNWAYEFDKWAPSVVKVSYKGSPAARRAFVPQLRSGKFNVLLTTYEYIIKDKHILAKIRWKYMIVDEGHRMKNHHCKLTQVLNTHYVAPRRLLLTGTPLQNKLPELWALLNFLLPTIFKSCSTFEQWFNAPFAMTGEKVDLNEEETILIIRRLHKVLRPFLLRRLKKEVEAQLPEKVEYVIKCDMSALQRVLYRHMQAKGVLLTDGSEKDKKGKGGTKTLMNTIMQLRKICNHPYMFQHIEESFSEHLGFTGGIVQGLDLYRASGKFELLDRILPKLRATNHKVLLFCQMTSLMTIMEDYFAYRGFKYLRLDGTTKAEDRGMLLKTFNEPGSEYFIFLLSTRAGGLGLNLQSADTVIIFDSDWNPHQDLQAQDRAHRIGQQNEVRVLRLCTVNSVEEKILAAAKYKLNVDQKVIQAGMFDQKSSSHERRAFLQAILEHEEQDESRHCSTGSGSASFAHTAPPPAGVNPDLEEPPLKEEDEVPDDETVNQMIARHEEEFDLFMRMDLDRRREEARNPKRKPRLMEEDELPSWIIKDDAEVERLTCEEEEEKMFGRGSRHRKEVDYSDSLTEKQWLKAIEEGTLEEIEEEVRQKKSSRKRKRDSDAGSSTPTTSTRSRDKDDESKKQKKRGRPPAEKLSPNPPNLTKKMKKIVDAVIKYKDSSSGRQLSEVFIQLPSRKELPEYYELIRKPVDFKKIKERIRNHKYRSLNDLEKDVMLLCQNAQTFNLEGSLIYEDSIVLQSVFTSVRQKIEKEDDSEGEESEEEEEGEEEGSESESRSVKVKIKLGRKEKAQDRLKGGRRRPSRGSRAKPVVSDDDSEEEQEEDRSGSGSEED

[6] = target: T1, von Hippel-Lindau disease tumor suppressor/SWI/SNF-related matrix-associated actin-dependent regulator of chromatin subfamily A member 2 (Homo sapiens); assay: PROTAC activity at VHL/SMARCA2 in human A549 cells assessed as induction of SMARCA2 degradation at 1 uM by Western blotting analysis; format: cell-based; details: TDE = time-dependent effect
[7] = target: T1, von Hippel-Lindau disease tumor suppressor/SWI/SNF-related matrix-associated actin-dependent regulator of chromatin subfamily A member 2 (Homo sapiens); assay: PROTAC activity at VHL/SMARCA2 in human A549 cells assessed as induction of SMARCA2 degradation at 1 uM pretreated with VHL-ligand followed by compound addition and measured after 8 hrs by Western blotting analysis; format: cell-based
A549 [8] = assay: Antitumor activity against human A549 cells xenografted in BALB/c mouse assessed as upregulation of gamma-H2AX expression at 80 mg/kg,IT(Intratumoral) administrated every four days for 16 days by immunohistochemistry analysis; format: functional, organism-based; details: time 16.0 day
A549 [9] = assay: Antitumor activity against human A549 cells xenografted in BALB/c mouse assessed as downregulation of SMARCA2 expression at 80 mg/kg,IT(Intratumoral) administrated every four days for 16 days by Western blotting analysis; format: functional, organism-based; details: time 16.0 day
[10] = Toxicity in BALB/c mouse xenografted with human A549 cells assessed as change in body weight at 80 mg/kg,IT(Intratumoral) administrated every four days for 16 days; format: organism-based; details: in vivo, other, 384 h, time 16 day
[11] = target: T1, von Hippel-Lindau disease tumor suppressor/SWI/SNF-related matrix-associated actin-dependent regulator of chromatin subfamily A member 2 (Homo sapiens); assay: PROTAC activity at VHL/SMARCA2 in human NCI-H1299 cells assessed as induction of SMARCA2 degradation at 1 uM by Western blotting analysis; format: cell-based; details: TDE = time-dependent effect
A549 [12] = assay: Inhibition of cell migration in human A549 cells at 10 uM incubated for 36 hrs by scratch wound healing based fluorescent microscopic analysis; format: functional
[13] = Stability in mouse plasma at 10 uM incubated for 24 hrs by HPLC analysis; format: ADME, cell-free
[14] = target: T1, von Hippel-Lindau disease tumor suppressor/SWI/SNF-related matrix-associated actin-dependent regulator of chromatin subfamily A member 2 (Homo sapiens); assay: PROTAC activity at VHL/SMARCA2 in human A549 cells assessed as induction of SMARCA2 degradation at 1 uM pretreated with MLN4924 followed by compound addition and measured after 8 hrs by Western blotting analysis; format: cell-based
A549 [15] = assay: Antitumor activity against human A549 cells xenografted in BALB/c mouse assessed as reduction in tumor weight at 80 mg/kg,IT(Intratumoral) administrated every four days for 16 days; format: functional, organism-based; details: time 16.0 day
[16] = target: T1, von Hippel-Lindau disease tumor suppressor/SWI/SNF-related matrix-associated actin-dependent regulator of chromatin subfamily A member 2 (Homo sapiens); assay: PROTAC activity at VHL/SMARCA2 in human A549 cells assessed as induction of SMARCA2 degradation at 1 uM pretreated with MG132 followed by compound addition and measured after 8 hrs by Western blotting analysis; format: cell-based
A549 [17] = assay: Antitumor activity against human A549 cells xenografted in BALB/c mouse assessed as upregulation of cleaved caspase-3 expression at 80 mg/kg,IT(Intratumoral) administrated every four days for 16 days by immunohistochemistry analysis; format: functional, organism-based; details: time 16.0 day
[18] = Toxicity in BALB/c mouse xenografted with human A549 cells assessed as morphological change in lung at 80 mg/kg,IT(Intratumoral) administrated every four days for 16 days by hematoxylin and eosin staining based microscopic analysis; format: organism-based; details: in vivo, other, 384 h, time 16 day
[19] = target: T1, von Hippel-Lindau disease tumor suppressor/SWI/SNF-related matrix-associated actin-dependent regulator of chromatin subfamily A member 2 (Homo sapiens); assay: PROTAC activity at VHL/SMARCA2 in human A549 cells assessed as induction of SMARCA2 degradation at 1 uM pretreated with 2-(4-(3-Amino-6-(2-hydroxyphenyl)pyridazin-4-yl)piperazin-1-yl) acetic acid trifluoroacetate followed by compound addition and measured after 8 hrs by Western blotting analysis; format: cell-based
[20] = target: T1, von Hippel-Lindau disease tumor suppressor/SWI/SNF-related matrix-associated actin-dependent regulator of chromatin subfamily A member 2 (Homo sapiens); assay: PROTAC activity at VHL/SMARCA2 in human NCI-H1299 cells harboring shRNA mediated VHL knockdown assessed as induction of SMARCA2 degradation at 0.1 to 2 uM incubated for 8 hrs by Western blotting analysis; format: cell-based; details: dose 0.1-2 µM
A549 [21] = assay: Antitumor activity against human A549 cells xenografted in BALB/c mouse assessed as upregulation of Ki67 expression at 80 mg/kg,IT(Intratumoral) administrated every four days for 16 days by immunohistochemistry analysis; format: functional, organism-based; details: time 16.0 day
HuLEC-5a [22] = assay: Inhibition of colony formation in human HuLEC-5a cells assessed as reduction in colony number at 0.8 to 20 uM incubated for 13 days by crystal violet staining based analysis; format: functional, cell-based; details: dose 0.8-20 µM, time 13.0 day
[23] = target: T1, von Hippel-Lindau disease tumor suppressor/SWI/SNF-related matrix-associated actin-dependent regulator of chromatin subfamily A member 2 (Homo sapiens); assay: PROTAC activity at VHL/SMARCA2 in human A549 cells assessed as induction of SMARCA2 degradation at 1 uM incubated for 8 hrs in presence of GSH scavenger NEM by Western blotting analysis; format: cell-based
[24] = target: T2, von Hippel-Lindau disease tumor suppressor/SWI/SNF-related matrix-associated actin-dependent regulator of chromatin subfamily A member 4 (Homo sapiens); assay: PROTAC activity at VHL/SMARCA4 in human HEK-293T cells assessed as induction of SMARCA4 degradation at 1 uM incubated for 24 hrs by Western blotting analysis relative to control; format: cell-based
[25] = Toxicity in BALB/c mouse xenografted with human A549 cells assessed as morphological change in kidney at 80 mg/kg,IT(Intratumoral) administrated every four days for 16 days by hematoxylin and eosin staining based microscopic analysis; format: organism-based; details: in vivo, other, 384 h, time 16 day
A549 [26] = assay: Antitumor activity against human A549 cells xenografted in BALB/c mouse assessed as reduction in tumor size at 80 mg/kg,IT(Intratumoral) administrated every four days for 16 days; format: functional, organism-based; details: time 16.0 day
A549 [27] = assay: Cytotoxicity against human A549 cells assessed as inhibition of cell growth incubated for 3 days by MTT assay; format: functional, cell-based; details: A549, 72 h
[28] = Toxicity in BALB/c mouse xenografted with human A549 cells assessed as morphological change in liver at 80 mg/kg,IT(Intratumoral) administrated every four days for 16 days by hematoxylin and eosin staining based microscopic analysis; format: organism-based; details: in vivo, other, 384 h, time 16 day
[29] = Toxicity in BALB/c mouse xenografted with human A549 cells assessed as morphological change in spleen at 80 mg/kg,IT(Intratumoral) administrated every four days for 16 days by hematoxylin and eosin staining based microscopic analysis; format: organism-based; details: in vivo, other, 384 h, time 16 day
[30] = Stability of the compound in cell culture medium containing 10% fetal bovine serum at 50 uM incubated for 72 hrs by HPLC analysis; format: physicochemical, cell-free; details: cattle
[31] = target: T1, von Hippel-Lindau disease tumor suppressor/SWI/SNF-related matrix-associated actin-dependent regulator of chromatin subfamily A member 2 (Homo sapiens); assay: PROTAC activity at VHL/SMARCA2 in human A549 cells assessed as induction of SMARCA2 degradation at 1 uM incubated for 24 hrs by Western blotting analysis; format: cell-based
A549 [32] = assay: Inhibition of colony formation in human A549 cells assessed as reduction in colony number at 0.8 to 20 uM incubated for 13 days by crystal violet staining based analysis; format: functional, cell-based; details: dose 0.8-20 µM, time 13.0 day
A549 [33] = assay: Antitumor activity against human A549 cells xenografted in BALB/c mouse assessed as upregulation of cleaved caspase-3 expression at 80 mg/kg,IT(Intratumoral) administrated every four days for 16 days by Western blotting analysis; format: functional, organism-based; details: time 16.0 day
[34] = target: T1, von Hippel-Lindau disease tumor suppressor/SWI/SNF-related matrix-associated actin-dependent regulator of chromatin subfamily A member 2 (Homo sapiens); assay: PROTAC activity at VHL/SMARCA2 in human A549 cells harboring shRNA mediated VHL knockdown assessed as induction of SMARCA2 degradation at 0.1 to 2 uM incubated for 8 hrs by Western blotting analysis; format: cell-based; details: dose 0.1-2 µM
HuLEC-5a [35] = assay: Inhibition of colony formation in human HuLEC-5a cells assessed as reduction in colony size at 0.8 to 20 uM incubated for 13 days by crystal violet staining based analysis; format: functional, cell-based; details: dose 0.8-20 µM, time 13.0 day
A549 [36] = assay: Antitumor activity against human A549 cells xenografted in BALB/c mouse assessed as downregulation of SMARCA2 expression at 80 mg/kg,IT(Intratumoral) administrated every four days for 16 days by immunohistochemistry analysis; format: functional, organism-based; details: time 16.0 day
A549 [37] = assay: Antitumor activity against human A549 cells xenografted in BALB/c mouse assessed as reduction in tumor volume at 80 mg/kg,IT(Intratumoral) administrated every four days for 16 days; format: functional, organism-based; details: time 16.0 day
NCI-H1299 = assay: Cytotoxicity against human NCI-H1299 cells assessed as inhibition of cell growth incubated for 3 days by MTT assay; format: functional, cell-based; details: NCI-H1299, 72 h

## Cc1ncsc1-c1ccc(CNC(=O)[C@@H]2C[C@@H](O)CN2C(=O)[C@@H](NC(=O)CN2CCN(c3cc(-c4ccccc4OS(=O)(=O)c4ccc([N+](=O)[O-])cc4)nnc3N)CC2)C(C)(C)C)cc1
[1]
  Activity: Non-Toxic
[2]
  Activity: inactive
A549 [3]
  inhibition: Active
[4]
  Activity: inactive
[5]
  Activity: inactive
[6]
  Activity: Tde
[7]
  Activity: inactive
A549 [8]
  Activity: Active
A549 [9]
  Activity: Active
[10]
  Activity: Non-Toxic
[11]
  Activity: Tde
A549 [12]
  inhibition: Active
[13]
  Stability: Stable
[14]
  Activity: inactive
A549 [15]
  Activity: Active
[16]
  Activity: inactive
A549 [17]
  Activity: Active
[18]
  Activity: Non-Toxic
[19]
  Activity: inactive
[20]
  Activity: inactive
A549 [21]
  Activity: Active
HuLEC-5a [22]
  inhibition: inactive
[23]
  Activity: inactive
[24]
  Activity: inactive
[25]
  Activity: Non-Toxic
A549 [26]
  Activity: Active
A549 [27]
  IC50: 9.1 µM
[28]
  Activity: Non-Toxic
[29]
  Activity: Non-Toxic
[30]
  Stability: Stable
[31]
  Activity: Active
A549 [32]
  inhibition: Active
A549 [33]
  Activity: Active
[34]
  Activity: inactive
HuLEC-5a [35]
  inhibition: inactive
A549 [36]
  Activity: Active
A549 [37]
  Activity: Active
NCI-H1299
  IC50: 21.8 µM
